Measured values published in the NIST ThermoML archive (doi:10.1021/je301283e).

Details: Liquid, Drop volume

CCCCCCC [heptane] + O=C=O
interfacial tension [mN/m]
Details	313.15 K	333.15 K	353.15 K	373.15 K	393.15 K
340 kPa	16.27	14.24	12.36	11	9.62
690 kPa	15.56	13.68	11.92	10.64	9.29
1030 kPa	14.88	13.1	11.46	10.29	8.99
1380 kPa	14.23	12.54	10.99	9.87	8.73
1720 kPa	13.42	12	10.6	9.54	8.45
2070 kPa	12.71	11.38	10.13	9.27	8.23
2410 kPa	12.05	10.8	9.78	8.84	7.93
2760 kPa	11.17	10.2	9.24	8.45	7.63
3100 kPa	10.54	9.62	8.71	8.1	7.32
3450 kPa	9.76	8.92	8.19	7.67	7.1
3800 kPa	9.04	8.32	7.86	7.35	6.84
4140 kPa	8.36	7.76	7.34	7	6.61
4480 kPa	7.47	7.23	6.95	6.68	6.25
4830 kPa	6.74	6.66	6.5	6.35	6
5170 kPa	5.87	6.1	6.11	5.95	5.74
5510 kPa	5.1	5.58	5.83	5.68	5.44
5860 kPa	4.23	5.11	5.46	5.41	5.24
6200 kPa	3.59	4.61	4.95	5.08	4.96
6550 kPa	3.07	4.04	4.41	4.69	4.68
6890 kPa	2.39	3.52	4.01	4.38	4.37
7240 kPa	–	3.02	3.61	3.94	4.1
7580 kPa	–	2.4	3.22	3.67	3.81

CCCCCCCCCCCCCCCC [hexadecane] + O=C=O
interfacial tension [mN/m]
Details	313.15 K	333.15 K	353.15 K	373.15 K	393.15 K
340 kPa	22.39	20.59	19.15	17.84	16.46
690 kPa	21.67	20.1	18.65	17.27	16.12
1030 kPa	20.89	19.32	18.15	16.85	15.79
1380 kPa	20.29	18.89	17.69	16.47	15.54
1720 kPa	19.42	18.21	17.21	15.99	15.11
2070 kPa	18.39	17.8	16.74	15.67	14.81
2410 kPa	17.81	17.01	16.21	15.29	14.49
2760 kPa	17.21	16.38	15.71	14.94	14.18
3100 kPa	16.29	15.94	15.31	14.48	13.77
3450 kPa	15.49	15.36	14.82	14.21	13.52
3800 kPa	14.85	14.8	14.37	13.89	13.2
4140 kPa	13.94	14.23	13.88	13.49	12.84
4480 kPa	13.36	13.77	13.31	13	12.59
4830 kPa	12.38	12.89	12.89	12.58	12.3
5170 kPa	11.9	12.49	12.44	12.15	12.06
5510 kPa	11.18	11.68	11.81	11.89	11.63
5860 kPa	10.46	11.11	11.48	11.47	11.41
6200 kPa	9.57	10.36	11.15	11.11	11.18
6550 kPa	8.63	9.68	10.74	10.79	10.81
6890 kPa	7.78	9.16	10.05	10.28	10.56
7240 kPa	7.22	8.82	9.74	9.9	10.19
7580 kPa	6.26	8.16	9.44	9.57	9.82
7930 kPa	5.48	7.52	8.98	9.35	9.52
8270 kPa	4.79	6.86	8.35	8.84	9.23
8620 kPa	4.24	6.32	7.67	8.27	8.84
8960 kPa	3.49	5.81	7.42	7.87	8.58
9310 kPa	2.7	5.19	6.95	7.65	8.16
9650 kPa	–	4.57	6.06	7.15	7.92
10000 kPa	–	4	5.78	6.74	7.61
10340 kPa	–	3.45	5.11	6.41	7.27
10690 kPa	–	2.94	4.84	6.16	6.99
11030 kPa	–	2.38	4.48	5.64	6.75
11380 kPa	–	–	4.04	5.28	6.42
